This passage reports EC50 results from US8030354B2, “Substituted biphenyl GPR40 modulators” (Amgen Inc., priority 2007, dated 2011).

A word on the EC50: it is the concentration needed to bring the measured effect to its halfway point. Read a low EC50 as an effect from little substance.

Sequence of GPR40 (O14842 whole entry): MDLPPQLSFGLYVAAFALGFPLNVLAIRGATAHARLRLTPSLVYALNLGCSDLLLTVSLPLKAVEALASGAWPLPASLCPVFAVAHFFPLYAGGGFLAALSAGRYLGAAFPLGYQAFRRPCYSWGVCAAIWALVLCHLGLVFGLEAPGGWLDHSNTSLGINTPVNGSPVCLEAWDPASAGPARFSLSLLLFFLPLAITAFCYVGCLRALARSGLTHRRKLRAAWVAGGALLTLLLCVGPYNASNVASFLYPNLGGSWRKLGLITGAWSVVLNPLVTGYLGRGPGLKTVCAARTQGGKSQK

This experiment concerns the target GPR40 (Homo sapiens, UniProt O14842). Put plainly: Cell-based aequorin assay (CHO cells stably expressing GPR40 and aequorin). On the set-up: expressed in transfected cells; host or cells: CHO cells stably transfected with GPR40 and aequorin. The note with it: activation of human GPR40, CHO cells, 0.01% HSA. As to the method:
Briefly, the Aequorin assays were performed on doubly stable CHO cells expressing GPR40 and Aequorin DNA. […] The luminescence was recorded over a period of 20 seconds with a Microlumat luminometer (Berthold). […] The inositol phosphate assay was performed on an A9 cell line stably transfected with GPR40 (A9_GPR40). The cells were incubated with different concentrations of compounds and [^3H] inositol accumulation was measured after 1 hour.
Cell-based aequorin assays were employed to characterize the modulatory activity of compounds on the GPR40 signaling pathway. In an exemplary assay, CHO cells were stably transfected with both GPR40 and Aequorin (Euroscreen). Cells were detached from the tissue culture dish with 2 mL of trypsin (0.25%(w/v)). Trypsinization was halted with 28 mL of Hanks Buffered Salt Solution containing 20 mM Hepes (H/HBSS) and 0.01% fatty acid-free human serum albumin (HSA). Coelantrazine is added to 1 ug/mL, and the cells were incubated for 2 hours at room temperature. Compounds were dissolved in DMSO for preparation of 10 mM stock solutions. Compounds were diluted in H/HBSS containing 0.01% HSA. Serial dilutions of the test compounds were prepared to determine dose response.
Aequorin luminescence measurements were made using an EG&G Berthold 96-well luminometer, and the response was measured over a 20 second interval after cells and compounds were mixed. The maximum relative light units was plotted to determine dose response. The EC50 (effective concentration to reach 50% maximal response) was determined from the dose response plot.
The compound `COc1ccc(F)c(-c2ccc(COc3cccc([C@H](C)CC(=O)O)c3)cc2OCC(C)C)c1` (single isomer, unassigned) [Example 29, (3R)-3-(3-(((2′-Fluoro-5′-(methyloxy)-2-((2-methylpropyl)oxy)-1,1′-biphenyl-4-yl)methyl)oxy)phenyl)butanoic acid or (3S)-3-(3-(((2′-fluoro-5′-(methyloxy)-2-((2-methylpropyl)oxy)-1,1′-biphenyl-4-yl)methyl)oxy)phenyl)butanoic acid] showed an EC50 of 100 to 1000 nM.
As for `COc1ccc(F)c(-c2ccc(COc3cccc([C@H](C)CC(=O)O)c3)cc2OCc2ccccc2)c1` (single isomer, unassigned) [Example 30, (3R)-3-(3-(((2′-Fluoro-5′-(methyloxy)-2-((phenylmethyl)oxy)-1,1′-biphenyl-4-yl)methyl)oxy)phenyl)butanoic acid or (3S)-3-(3-(((2′-fluoro-5′-(methyloxy)-2-((phenylmethyl)oxy)-1,1′-biphenyl-4-yl)methyl)oxy)phenyl)butanoic acid], the EC50 was in the range of 1000 to 10000 nM.
For `COc1ccc(F)c(-c2ccc(COc3cccc([C@H](C)CC(=O)O)c3)cc2OC(C)C)c1` (single isomer, unassigned) [Example 31, (3R)-3-(3-(((2′-Fluoro-2-((1-methylethyl)oxy)-5′-(methyloxy)-1,1′-biphenyl-4-yl)methyl)oxy)phenyl)butanoic acid or (3S)-3-(3-(((2′-fluoro-2-((1-methylethyl)oxy)-5′-(methyloxy)-1,1′-biphenyl-4-yl)methyl)oxy)phenyl)butanoic acid] the value was 100 to 1000 nM; for `COc1ccc(F)c(-c2ccc(COc3cccc([C@H](C)CC(=O)O)c3)cc2OC2CCCC2)c1` (single isomer, unassigned) [Example 32, (3R)-3-(3-(((2-(Cyclopentyloxy)-2′-fluoro-5′-(methyloxy)-1,1′-biphenyl-4-yl)methyl)oxy)phenyl)butanoic acid or (3S)-3-(3-(((2-(cyclopentyloxy)-2′-fluoro-5′-(methyloxy)-1,1′-biphenyl-4-yl)methyl)oxy)phenyl)butanoic acid], 100 to 1000 nM; for `C=C(C)[C@@H](CC(=O)O)c1cccc(OCc2ccc(-c3cc(OC)ccc3F)c(C(C)(C)C)c2)c1` (single isomer, unassigned) [Example 48, (3R)-3-(3-(((2-(1,1-Dimethylethyl)-2′-fluoro-5′-(methyloxy)-1,1′-biphenyl-4-yl)methyl)oxy)phenyl)-4-methyl-4-pentenoic acid or (3S)-3-(3-(((2-(1,1-dimethylethyl)-2′-fluoro-5′-(methyloxy)-1,1′-biphenyl-4-yl)methyl)oxy)phenyl)-4-methyl-4-pentenoic acid], 1000 to 10000 nM.
The compound `COc1ccc(F)c(-c2ccc(COc3cccc([C@@H](CC(=O)O)C(C)C)c3)cc2C(C)(C)C)c1` (single isomer, unassigned) [Example 52] yielded an EC50 of 1000 to 10000 nM.
On to `CCCCOc1cc(COc2cccc([C@@H](CC(=O)O)C(C)C)c2)ccc1-c1cc(OC)ccc1F` (single isomer, unassigned) [Example 53], for which the EC50 lay in the range of 1000 to 10000 nM.
For `C=CC[C@H](CC(=O)O)c1cccc(OCc2ccc(-c3cc(OC)ccc3F)c(OCCCC)c2)c1` (single isomer, unassigned) [Example 54, (3R)-3-(3-(((2-(Butyloxy)-2′-fluoro-5′-(methyloxy)-1,1′-biphenyl-4-yl)methyl)oxy)phenyl)-5-hexenoic acid or (3S)-3-(3-(((2-(butyloxy)-2′-fluoro-5′-(methyloxy)-1,1′-biphenyl-4-yl)methyl)oxy)phenyl)-5-hexenoic acid] the value was 1000 to 10000 nM.
For `COc1cccc(-c2ccc(COc3cccc([C@@H](CC(=O)O)C(C)C)c3)cc2C(C)(C)C)c1` (single isomer, unassigned) [Example 58, (3S)-3-(3-(((2-(1,1-Dimethylethyl)-3′-(methyloxy)-1,1′-biphenyl-4-yl)methyl)oxy)phenyl)-4-methylpentanoic acid or (3R)-3-(3-(((2-(1,1-dimethylethyl)-3′-(methyloxy)-1,1′-biphenyl-4-yl)methyl)oxy)phenyl)-4-methylpentanoic acid] the value was 1000 to 10000 nM; for `COc1ccc(F)c(-c2ccc(COc3cccc(CC(C)C(=O)O)c3)cc2C2=CCCC2(C)C)c1` (single isomer, unassigned) [Example 62.1, (2R)-3-(3-(((2-(5,5-Dimethyl-1-cyclopenten-1-yl)-2′-fluoro-5′-(methyloxy)-1,1′-biphenyl-4-yl)methyl)oxy)phenyl)-2-methylpropanoic acid or (2S)-3-(3-(((2-(5,5-dimethyl-1-cyclopenten-1-yl)-2′-fluoro-5′-(methyloxy)-1,1′-biphenyl-4-yl)methyl)oxy)phenyl)-2-methylpropanoic acid], 100 to 1000 nM.
In the case of `COc1ccc(F)c(-c2ccc(COc3cccc(CC(C)C(=O)O)c3)cc2C2CCCC2(C)C)c1` (single isomer, unassigned) [Example 62.2, (2R)-3-(3-(((2-(2,2-Dimethylcyclopentyl)-2′-fluoro-5′-(methyloxy)-1,1′-biphenyl-4-yl)methyl)oxy)phenyl)-2-methylpropanoic acid or (2S)-3-(3-(((2-(2,2-dimethylcyclopentyl)-2′-fluoro-5′-(methyloxy)-1,1′-biphenyl-4-yl)methyl)oxy)phenyl)-2-methylpropanoic acid], the EC50 is 100 to 1000 nM.
The figure for `COc1ccc(F)c(-c2ccc(COc3cccc(C[C@H](C)C(=O)O)c3)cc2C2=CCCC2(C)C)c1` (single isomer, unassigned) [Example 63.1, (2S)-3-(3-(((2-(5,5-Dimethyl-1-cyclopenten-1-yl)-2′-fluoro-5′-(methyloxy)-1,1′-biphenyl-4-yl)methyl)oxy)phenyl)-2-methylpropanoic acid or (2R)-3-(3-(((2-(5,5-dimethyl-1-cyclopenten-1-yl)-2′-fluoro-5′-(methyloxy)-1,1′-biphenyl-4-yl)methyl)oxy)phenyl)-2-methylpropanoic acid] is 100 to 1000 nM.
With `COc1ccc(F)c(-c2ccc(COc3cccc(CC(C)C(=O)O)c3)cc2C2CCCC2(C)C)c1` (single isomer, unassigned) [Example 63.2, (2S)-3-(3-(((2-(2,2-Dimethylcyclopentyl)-2′-fluoro-5′-(methyloxy)-1,1′-biphenyl-4-yl)methyl)oxy)phenyl)-2-methylpropanoic acid or (2R)-3-(3-(((2-(2,2-dimethylcyclopentyl)-2′-fluoro-5′-(methyloxy)-1,1′-biphenyl-4-yl)methyl)oxy)phenyl)-2-methylpropanoic acid], the concentration giving a half-maximal response (EC50) is 100 to 1000 nM.
For `COc1ccc(F)c(-c2ccc(COc3cccc(C(C)CC(=O)O)c3)cc2OCC(C)(C)C)c1` (single isomer, unassigned) [Example 64.1, (3R)-3-(3-(((2-((2,2-Dimethylpropyl)oxy)-2′-fluoro-5′-(methyloxy)-1,1′-biphenyl-4-yl)methyl)oxy)phenyl)butanoic acid or (3S)-3-(3-(((2-((2,2-dimethylpropyl)oxy)-2′-fluoro-5′-(methyloxy)-1,1′-biphenyl-4-yl)methyl)oxy)phenyl)butanoic acid] the value was 100 to 1000 nM; for `CCCCOc1cc(COc2cccc(C(C)CC(=O)O)c2)ccc1-c1cccc(SC)c1` (single isomer, unassigned) [Example 64.2, (3R)-3-(3-(((2-(Butyloxy)-3′-(methylsulfanyl)-1,1′-biphenyl-4-yl)methyl)oxy)phenyl)butanoic acid or (3S)-3-(3-(((2-(butyloxy)-3′-(methylsulfanyl)-1,1′-biphenyl-4-yl)methyl)oxy)phenyl)butanoic acid], 1000 to 10000 nM.
For `COc1ccc(F)c(-c2cc(C)c(COc3cccc(C(C)CC(=O)O)c3)cc2C(C)(C)C)c1` (single isomer, unassigned) [Example 64.3, (3R)-3-(3-(((2-(1,1-Dimethylethyl)-2′-fluoro-5-methyl-5′-(methyloxy)-1,1′-biphenyl-4-yl)methyl)oxy)phenyl)butanoic acid or (3S)-3-(3-(((2-(1,1-dimethylethyl)-2′-fluoro-5-methyl-5′-(methyloxy)-1,1′-biphenyl-4-yl)methyl)oxy)phenyl)butanoic acid] the value was 1000 to 10000 nM; for `CCC/C=C/c1cc(COc2cccc(C(C)CC(=O)O)c2)ccc1-c1cc(OC)ccc1F` (single isomer, unassigned) [Example 64.8, (3R)-3-(3-(((2′-Fluoro-5′-(methyloxy)-2-((1E)-1-pentenyl)-1,1′-biphenyl-4-yl)methyl)oxy)phenyl)butanoic acid or (3S)-3-(3-(((2′-fluoro-5′-(methyloxy)-2-((1E)-1-pentenyl)-1,1′-biphenyl-4-yl)methyl)oxy)phenyl)butanoic acid], 100 to 1000 nM; for `COc1ccc(F)c(-c2ccc(COc3cccc(C(C)CC(=O)O)c3)cc2/C=C/C2CCCCC2)c1` (single isomer, unassigned) [Example 64.9, (3R)-3-(3-(((2-((E)-2-Cyclohexylethenyl)-2′-fluoro-5′-(methyloxy)-1,1′-biphenyl-4-yl)methyl)oxy)phenyl)butanoic acid or (3S)-3-(3-(((2-((E)-2-cyclohexylethenyl)-2′-fluoro-5′-(methyloxy)-1,1′-biphenyl-4-yl)methyl)oxy)phenyl)butanoic acid], 100 to 1000 nM.
